We go through 2 compounds from patent US12685734B2, “N6-methyladenosine regulators in uterine fibroids” (The University of Chicago, priority 2021, dated 2026).

In data set [1] the test system is Eker rats carrying Tsc2 germline mutation. Particulars: early-life exposure during development of the uterus, cited from earlier work.
Another data set concerns HuLM cells. The data set is described as follows: Cell proliferation, trypan blue exclusion assay, METTL3 inhibition. Conditions: 1-10 μM, 24 hours, vs DMSO vehicle, FIG. 9. It is filed as cell-based, human. As to the method: The HuLM cell line was cultured and maintained in phenol red-free, Dulbecco's Modified Eagle Medium: Nutrient Mixture F-12. The cells were grown at 37° C. and 5% CO2 in an incubator with saturating humidity.
Cell proliferation was measured using trypan blue exclusion assay. The cells were cultured in the absence or presence of the METTL3 inhibitor STM2457 at a dose range from 1-10 μM for 24 hours. DMSO was used as a vehicle control. Cells were trypsinized, collected by centrifuge, and resuspended in serum-free medium. Equal volumes of 0.4% trypan blue and cell suspension were mixed and cells were counted using a hemacytometer. This assay was performed three times in triplicate.

A value given as a limit tells only on which side of the number the result lay.

Regarding `CC/C(=C(/CC)c1ccc(O)cc1)c1ccc(O)cc1` [diethylstilbestrol], the “tumor multiplicity and size” value in data set [1] (genetically predisposed animals) is on record as “increases”. Besides, in data set [1] (spontaneous frequency 65%), the tumor-suppressor-gene penetrance is reported as greater than 90%.
Take STM2457: the “cell proliferation of UF cells (relative cell numbers)” value in the data set on HuLM cells is given as “decreases the cell proliferation”.
